# Measurements published in US8221762B2, “Naturally processed measles virus peptides from class II HLA molecules” (priority 2004, dated 2012).
# Tests used:
# [1] = test system: PBMC from subjects previously immunized with MMR-II vaccine; assay: T cell proliferation assay ([3H]-thymidine, 3 days, SI cut point 3.0), Example 1; type: cell-based, human; conditions: 95 subjects
# Text: Study participants included ninety-five healthy residents of Olmsted County, Minn., aged 11 to 18 years. […] Mononuclear leukocytes were isolated by Ficoll-Hypaque (Amersham) density gradient centrifugation.
# For descriptive analyses, we used medians and ranges for continuous variables and frequencies for categorical variables. We compared cpm for MV-stimulated, MV-P1-stimulated and MV-P2-stimulated cells with unstimulated cells using Wilcoxon signed rank tests. Associations between the continuously distributed stimulation indices for MV-P1, MV-P2 peptides, and MV were determined using Spearman rank correlation coefficients. Stimulation indices were subsequently dichotomized into positive or negative using a cut point of 3.0. We then compared MV positivity with MV-P1 and MV-P2 positivity using estimates of sensitivity.
# [2] = test system: PBMC of subjects previously immunized with MMR-II vaccine; assay: IFN-γ supernatant cytokine response (ELISA) to measles virus and synthetic measles peptides; type: cell-based, human; conditions: for Median secretion value IFN-γ: stimulated minus control cells
# Experimental: (§1) To evaluate the immunogenicity of measles-derived peptides, 281 of these subjects (age 12 to 18 years) were studied.
# (§2) Cryopreserved PBMC were used to measure cytokine responses to measles-derived peptides. We thawed cryopreserved PBMC at a concentration of 1×10^7 cells/mL using standard protocol. The vials were rapidly thawed in a 37° C. water bath and then washed twice with 10× volume of complete RPMI 1640 media supplemented with 10% FCS at 700 rpm for 5 minutes. The final cell pellet was resuspended in complete RPMI media containing penicillin-streptomycin (100 U/mL) and supplemented with 5% normal human AB sera (Ervin Sci., Santa Ana, Calif.). For IFN-γ determination, thawed PBMC were cultured at a concentration of 2×10^5 in RPMI containing 5% normal human AB sera with or without measles peptides (10 μg/well) and MV (positive control) at a moi of 0.5 for 6 days. For IL-4 determination in cell culture supernatants, we cultured thawed PBMC at a concentration of 4×10^5 in RPMI media, supplemented with 5% normal human AB sera. Cells were cultured in the presence of 2 μg/mL of IL-4 receptor antibody (R&D Systems, Minneapolis, Minn.) (Ekerfelt, et al., J. Immunol. Methods 260:55-67, 2002) with or without synthetic measles-derived peptides (10 μg/well) and MV (positive control) at a moi of 0.1 for 6 days. Cell culture supernatants were collected in a volume of 150 μl/well for both IFN-γ and IL-4 and were frozen at […] until assayed. The culture supernatants were assayed using a standard ELISA protocol (OptiEtA Human IFN-γ and IL-4, PharMingen, San Diego, Calif.) at a dilution of 1:1 in PBS containing 10% FCS. ELISA plates (Immulon-4, DYNEX Technologies Inc, Chantilly, Va.) were coated with capture IFN-γ or IL-4 mAb and incubated overnight at 4° C. The antibody-coated plates were incubated with diluted supernatant samples for 2 hours at room temperature followed by incubation with biotinylated mouse anti-human IFN-γor IL-4 conjugated to avidin-horseradish peroxidase for 1 hour at room temperature. The absorbance of the product was read using a microplate reader (Molecular Devices, Sunnyvale, Calif.) at 450 nm. The IFN-γ and IL-4 concentration of test samples was calculated by reference to the standard curve. Unstimulated and MV-stimulated secretion measurements for IFN-γ were performed in triplicate, while all other secretion measurements for both IFN-γ and IL-4 were performed in duplicate. Individual-specific values were then summarized by taking means of the duplicate or triplicate values. Mean background levels of IFN-γ and IL-4 cytokine production in cultures not stimulated with measles peptides or MV was subtracted from the mean antigen-induced responses to produce “corrected” secretion values. Negative corrected values indicate that the unstimulated secretion levels were, on average, higher than the stimulated secretion levels.
# (§3) Two criteria were established to define positive responses for secreted IFN-γ and IL-4 cytokines using ELISA.
# [3] = test system: PBMC of subjects previously immunized with MMR-II vaccine; assay: IL-4 supernatant cytokine response (ELISA) to measles virus and synthetic measles peptides; type: cell-based, human; conditions: for Median secretion value IL-4: stimulated minus control cells
# Experimental: as §1, §2, §3
# [4] = test system: PBMC of subjects previously immunized with MMR-II vaccine; assay: T cell proliferation assay ([3H]-thymidine, 4 days, SI>2 positive), Example 3; conditions: 131 subjects (MV-P2 130, MV-F 43)
# Experimental: Briefly, study participants were enrolled as part of a larger stratified random sample study to assess associations between HLA genes and immune response to measles-mumps-rubella-II (MMR-II) vaccine in healthy, school-age children and young adults (ages 12 to 18 years). To evaluate the cellular responses to measles peptides, 131 subjects were used. In addition, a random subset of 43 individuals was tested for reactivity to a control measles fusion (F) peptide. All enrolled subjects had been previously immunized with two doses of MMR-II vaccine (Merck Research, West Point, Pa.) containing the attenuated Edmonston strain of MV. All but four of these participants were Caucasian and all subjects resided in a geographic area where no wild-type MV had circulated in the community during the subjects' lifetimes.
# In brief, peripheral blood mononuclear cells (PBMC) were separated from heparinized blood by Ficoll-Hypaque (Sigma, St. Louis, Mo.) density gradient centrifugation and washed in RPMI 1640 medium (Celox Laboratories, Inc., St. Paul, Minn.) supplemented with 2 mM L-glutamine, 100 μg/ml streptomycin, 100 U/ml penicillin and 8% fetal calf serum (Life Technologies, Gaithersburg, Md.). Measles virus, MV-P1, MV-P2, and MV-F specific T cell responses were measures by proliferation of PBMC (2×10^5) incubated in RPMI-1640 medium, supplemented with 5% autologous sera, with live attenuated MV (50 pfu/ml, positive control) or synthetic peptides (20 μg/ml) compared to unstimulated cell control wells. Phytohemagglutinin (PHA, 5 μg/ml) was used to assess cell vitality. Only assays in which PBMC responded to PHA were accepted. T lymphocyte proliferation was measured after 4 days by [^3H]-tritiated thymidine uptake. Cells were then harvested onto glass fiber filters, using a 96-well harvesting system (Skatron Instruments, Norway). The amount of incorporated radioactivity was determined by a liquid scintillation counter (Packard Instrument Company, Boston, Mass.). We used six replicates of counts per minute (cpm) values for unstimulated cells, and three replicates each for T cells stimulated with peptides and live measles vaccine. For each subject, median cpm were calculated for unstimulated cells, as well as for cells stimulated with MV-P1, MV-P2, MV-F and measles. Results were then expressed as antigen-specific stimulation indices (SI), defined as the ratio of the median cpm of antigen-stimulated wells to the median cpm of unstimulated control wells. […] SI>2 was arbitrarily selected prior to the study as an indication of the presence of reactive peptide specific memory T cells, and SI<2 as an indicator of the lack of memory T lymphocytes to measles-derived peptides (Pauksen, et al., Bone Marrow Transplant 20:317-323, 1997).
# Three outcomes were of primary interest: T cell proliferation (as measured by stimulation indices) induced separately by live MV, the MV-P1 peptide, and the MV-P2 peptide variant. Data were descriptively summarized using frequencies and percentages for all categorical variables, and medians and ranges for all continuous variables.
# [5] = peptides 20 μg/ml, MV 50 PFU/well
# [6] = 281 subjects, stimulated cells minus unstimulated cells
# [7] = peptides 20 μg/ml, MV 50 pfu/ml, 4 days
smiles,measurement,setting,value
CC[C@H](C)[C@H](NC(=O)[C@H](CCC(=O)O)NC(=O)CNC(=O)CNC(=O)[C@H](CCC(=O)O)NC(=O)[C@H](C)NC(=O)[C@@H](NC(=O)[C@H](CCC(=O)O)NC(=O)[C@@H](NC(=O)[C@H](CC(=O)O)NC(=O)[C@H](CO)NC(=O)[C@H](C)N)C(C)C)[C@@H](C)O)C(=O)N[C@@H](Cc1c[nH]cn1)C(=O)N[C@@H](CCC(=O)O)C(=O)N[C@@H](CC(C)C)C(=O)N[C@@H](CC(C)C)C(=O)N[C@@H](CCCNC(=N)N)C(=O)N[C@@H](CC(C)C)C(=O)N[C@@H](CCC(N)=O)C(=O)O [MV-P1],subjects with stimulation index greater than 3.0 (recognized),[1],17%
same,"stimulation index, median",[1]; [5],1.4
same,"stimulation index, range",[1]; [5],0.5-20.3
same,"median cpm value, lymphoproliferative assay","[1]; peptides 20 μg/ml, live attenuated MV 50 PFU/well, 3 days",472 cpm
same,IFN-γ % Response (>20 pg/mL),"[2]; 281 subjects, peptides 10 μg/well, MV moi 0.5, 6 days",55.9%
same,IFN-γ Median level,[2]; [6],28.0 pg/mL
same,Median secretion value IFN-γ,[2]; All other HLA-DRB1 alleles,26.7 pg/mL
same,Median secretion value IFN-γ,[2]; HLA-DRB1 allele *0101,51.2 pg/mL
same,Median secretion value IFN-γ,[2]; HLA-DRB1 allele *0102,17.6 pg/mL
same,Median secretion value IFN-γ,[2]; HLA-DRB1 allele *0103,116.2 pg/mL
same,Median secretion value IFN-γ,[2]; HLA-DRB1 allele *0301,40.8 pg/mL
same,Median secretion value IFN-γ,[2]; HLA-DRB1 allele *0401,33.5 pg/mL
same,Median secretion value IFN-γ,[2]; HLA-DRB1 allele *0402,0.1 pg/mL
same,Median secretion value IFN-γ,[2]; HLA-DRB1 allele *0404,52.2 pg/mL
same,Median secretion value IFN-γ,[2]; HLA-DRB1 allele *0407,8.6 pg/mL
same,Median secretion value IFN-γ,[2]; HLA-DRB1 allele *0701,18.6 pg/mL
same,Median secretion value IFN-γ,[2]; HLA-DRB1 allele *0801,27.2 pg/mL
same,Median secretion value IFN-γ,[2]; HLA-DRB1 allele *0901,19.9 pg/mL
same,Median secretion value IFN-γ,[2]; HLA-DRB1 allele *1001,46.9 pg/mL
same,Median secretion value IFN-γ,[2]; HLA-DRB1 allele *1101,48.5 pg/mL
same,Median secretion value IFN-γ,[2]; HLA-DRB1 allele *1103,65.3 pg/mL
same,Median secretion value IFN-γ,[2]; HLA-DRB1 allele *1104,15.4 pg/mL
same,Median secretion value IFN-γ,[2]; HLA-DRB1 allele *1201,14.6 pg/mL
same,Median secretion value IFN-γ,[2]; HLA-DRB1 allele *1301,27.4 pg/mL
same,Median secretion value IFN-γ,[2]; HLA-DRB1 allele *1302,14.2 pg/mL
same,Median secretion value IFN-γ,[2]; HLA-DRB1 allele *1303,63.9 pg/mL
same,Median secretion value IFN-γ,[2]; HLA-DRB1 allele *1401,22.5 pg/mL
same,Median secretion value IFN-γ,[2]; HLA-DRB1 allele *1501,32.8 pg/mL
same,Median secretion value IFN-γ,[2]; HLA-DRB1 allele *03011,18.7 pg/mL
same,Median secretion value IFN-γ,[2]; Overall (281),28.0 pg/mL
same,MV IFN-γ responders who also produced IFN-γ to the peptide,[2]; among the 185 subjects who responded to MV,59.5%
same,IL-4 % Response (>10 pg/mL),"[3]; 281 subjects, peptides 10 μg/well, MV moi 0.1, 6 days",19.2%
same,IL-4 Median level,[3]; [6],-0.4 pg/mL
same,Median secretion value IL-4,[3]; All other HLA-DRB1 alleles,-1.3 pg/mL
same,Median secretion value IL-4,[3]; HLA-DRB1 allele *0101,1.1 pg/mL
same,Median secretion value IL-4,[3]; HLA-DRB1 allele *0102,5.6 pg/mL
same,Median secretion value IL-4,[3]; HLA-DRB1 allele *0103,-1.5 pg/mL
same,Median secretion value IL-4,[3]; HLA-DRB1 allele *0301,3.5 pg/mL
same,Median secretion value IL-4,[3]; HLA-DRB1 allele *0401,0.9 pg/mL
same,Median secretion value IL-4,[3]; HLA-DRB1 allele *0402,3.8 pg/mL
same,Median secretion value IL-4,[3]; HLA-DRB1 allele *0404,0.3 pg/mL
same,Median secretion value IL-4,[3]; HLA-DRB1 allele *0407,-2.1 pg/mL
same,Median secretion value IL-4,[3]; HLA-DRB1 allele *0701,-0.6 pg/mL
same,Median secretion value IL-4,[3]; HLA-DRB1 allele *0801,-1.4 pg/mL
same,Median secretion value IL-4,[3]; HLA-DRB1 allele *0901,-0.9 pg/mL
same,Median secretion value IL-4,[3]; HLA-DRB1 allele *1001,0.9 pg/mL
same,Median secretion value IL-4,[3]; HLA-DRB1 allele *1101,-3.7 pg/mL
same,Median secretion value IL-4,[3]; HLA-DRB1 allele *1103,-3.5 pg/mL
same,Median secretion value IL-4,[3]; HLA-DRB1 allele *1104,-1.3 pg/mL
same,Median secretion value IL-4,[3]; HLA-DRB1 allele *1201,-0.4 pg/mL
same,Median secretion value IL-4,[3]; HLA-DRB1 allele *1301,-3.0 pg/mL
same,Median secretion value IL-4,[3]; HLA-DRB1 allele *1302,1.2 pg/mL
same,Median secretion value IL-4,[3]; HLA-DRB1 allele *1303,-4.2 pg/mL
same,Median secretion value IL-4,[3]; HLA-DRB1 allele *1401,-0.8 pg/mL
same,Median secretion value IL-4,[3]; HLA-DRB1 allele *1501,-0.7 pg/mL
same,Median secretion value IL-4,[3]; HLA-DRB1 allele *03011,0.2 pg/mL
same,Median secretion value IL-4,[3]; Overall (281),-0.4 pg/mL
same,MV IL-4 responders who also responded to the peptide,[3]; among the 143 subjects with IL-4 production from MV-stimulated PBMC,23.1%
same,subjects with stimulation index greater than 2 (positive lymphoproliferative response),[4],41%
same,"stimulation index, median",[4]; [7],1.7
same,"stimulation index, range",[4]; [7],0.5-20.3
